Test results: article PMC2910439, “Imperatoxin A, a Cell-Penetrating Peptide from Scorpion Venom, as a Probe of Ca^2+-Release Channels/Ryanodine Receptors” (Pharmaceuticals, 2010)
Starred links: 1 amine or outer side, 2 acyl side, 3 side chain; linkers in the order of their positions; H or OH if unused. Positions of bridges follow the written chain, without caps; N, C: chain ends. Non-standard residues stand in square brackets, D forms with d. Residues, ends and D or L forms follow the SMILES beside them. *: point of attachment. X1 = CC1CC(C)(C)Nc2c1cc1c(c2S(=O)(=O)O)Oc2c(S(=O)(=O)O)c3c(cc2=C1c1c(Cl)c(SCC(=O)*)c(Cl)c(Cl)c1C(=O)O)C(C)CC(C)(C)N=3; X2 = N=C(CCCSC1CC(=O)N(CCCCCN[*:1])C1=O)NCC(=O)[*:2]

Experiments:
[1] = test system: intact mouse ventricular myocytes; format: cell-based; conditions: for speed of penetration into living isolated cardiomyocytes: conclusion, native toxin judged by [Ca2+]i transients, derivative by fluorescence
Description: To visualize the cell-penetrating properties of Alexa-IpTxa in intact cells, ventricular cardiomyocytes were enzymatically isolated and incubated with 5 μM Alexa-IpTxa and Alexa 488-Wheat Germ Agglutinin (10 μg/mL) for 30 min at room temperature (see Experimental Methods). The distribution of Alexa-546-IpTxa (red fluorescence) and WAG-Alexa-488 (green fluorescence) were monitored in living, unfixed cardiac myocytes.
We next sought to establish a time-course for the translocation of Alexa-IpTxa across the plasma membrane of intact cardiomyocytes. […] Clear intracellular localization of fluorescence is seen only with Alexa-IpTxa, as early as 10 min after incubation (panel D), but more intensely after 20 min incubation (panel F). In order to refine the time-course of Alexa-IpTxa penetration into cardiomyocytes, we continuously monitored the evolution of fluorescence in 3 regions of interest (ROI) corresponding to the plasma membrane and adjacent cytosol (ROI-1), the bulk cytosol (ROI-2), and the nucleus (ROI-3). A fourth ROI (not shown) was defined to monitor changes in fluorescence of the bath solution. Animations of IpTxa translocation into cells are available online as supplementary data (URL: http://www.mdpi.com/1424-8247/3/4/1093/S1).
Isolated cardiac myocytes were incubated with Alexa-546-IpTxa (5 μM) with or without WGA-Alexa 488 (10 μg/mL) for 30 min in the dark. Images were acquired with a BioRad MR-1 confocal microscope coupled to a Nikon Disphot microscope and an X60 oil immersion objective using the Lasersharp 2000 software. Confocal images are 0.25 μm sections. All experiments were performed at room temperature.
Ventricular myocytes were imaged with a Zeiss META 5 confocal microscope equipped with laser scanning. Three regions of interest were delineated corresponding to the plasma membrane (ROI-1), […]. Changes in fluorescence intensity in these regions were monitored and analyzed. Alexa-546-IpTxa fluorescence was excited with the 488 nm line of an argon laser, and emitted light was filtered by a LP 585 filter. Alexa-546-IpTxa was perfused at a concentration of 1 μM. Scans were taken every 3 seconds for a total of 351 seconds. After the time series, perfusion was turned off and the cell remained in the bath for 30 minutes. Scans were taken at 9 minutes and 30 minutes.

[2] = test system: intact mouse ventricular cardiomyocytes; assay: Ca2+ imaging of field-stimulated ventricular myocytes perfused with toxin; format: cell-based
Description: IpTxa’s ability to induce subconducting states in single channels and to enhance binding of [^3H]ryanodine to SR vesicles distinguish it as a RyR agonist. […] Ventricular cardiomyocytes were enzymatically digested, loaded with the Ca^2+ indicator Fluo-3, and placed into the perfusion chamber of a Zeiss confocal microscope (see Experimental Methods). Cells were field-stimulated under Normal Tyrode (NT) solution, and Ca^2+ transients were recorded in line-scan mode (control). Perfusion was then changed to NT + IpTxa (in the range of 100 nM-30 µM), and transients were recorded in the presence of toxin (+IpTxa). We hypothesized that if IpTxa penetrates cardiomyocytes to reach its intracellular target, it would alter the shape of [Ca^2+]i transients elicited with field-stimulation. As expected, changes in [Ca^2+]i transients were evident within seconds of perfusion with the toxin. […] For this experiment, cells were paced at 0.5 Hz under NT solution (see Experimental Methods). Cells were scanned first without IpTxa (control transients, Figure 1A), and then IpTxa was perfused and a second scan was taken immediately afterward (Figure 1B).
Mouse ventricular myocytes were isolated by collagenase digestion of perfused mouse hearts using the method of Mitra and Morad with modification addressed by Wolska and Solaro [23]. Mice were heparinized and anesthetized […] before removal and hanging of the heart. Cells were suspended in Tyrode solution ((mM) 130 NaCl, 5.4 KCl, 0.4 NaH2PO4, 0.5 MgCl2, 25 HEPES, 22 glucose, 0.01 μg/mL insulin, pH7.4 with NaOH) and kept at room temperature until used within 6 h.
Changes in cytosolic [Ca^2+] using the Ca^2+-dependent fluorescent dye Fluo-3 AM. Fluo-3 AM was added to ventricular myocytes in Tyrodes solution (final concentration 10 μM) and incubated at room temperature for 30 minutes, after which the cells were washed and resuspended in Tyrodes solution. Fluorescence changes were monitored with a Zeiss META 5 line-scanning confocal microscope. Fluo-3 was excited at 488nm, and emissions were collected at 500-570 nm. Cells were perfused with normal Tyrodes and field-stimulated at 1 Hz. After recording control transients, synthetic, unmodified IpTxa was perfused at concentrations of 10 μM, 1 μM, and 100 nM for 10 seconds. To estimate the calcium load of the sarcoplasmic reticulum, we stopped stimulations and performed a rapid application of 10 mM caffeine to elicit complete Ca^2+ release.

[3] = test system: isolated rat ventricular myocytes; conditions: 0.5 mM; followed by steady decline to a new lower steady-state; cited from earlier work
Description: At lower concentrations (100-300 nM), IpTxa perfusion elicited several discernible stimulatory effects in most cells.

CC(C)C[C@@H]1NC(=O)[C@H](Cc2c[nH]cn2)NC(=O)[C@@H]2CCCN2C(=O)[C@H](CC(C)C)NC(=O)[C@@H](NC(=O)[C@H](CC(=O)O)NC(=O)CNC(=N)CCCSC2CC(=O)N(CCCCCNC(=O)CSc3c(Cl)c(Cl)c(C(=O)O)c(C4=c5cc6c(c(S(=O)(=O)O)c5Oc5c4cc4c(c5S(=O)(=O)O)NC(C)(C)CC4C)=NC(C)(C)CC6C)c3Cl)C2=O)CSSC[C@@H]2NC(=O)[C@@H]3CSSC[C@@H](C(=O)N[C@@H](CCCNC(=N)N)C(=O)O)NC(=O)[C@H](CCCNC(=N)N)NC(=O)[C@H](CCCCN)NC(=O)[C@H](CCC(=O)O)NC(=O)[C@H](C)NC(=O)[C@H](CC(N)=O)NC(=O)[C@H]([C@@H](C)O)NC(=O)CNC(=O)[C@H](CCCNC(=N)N)NC(=O)[C@H](CCCNC(=N)N)NC(=O)[C@H](CCCCN)NC(=O)[C@H](CSSC[C@H](NC(=O)[C@H](CCCNC(=N)N)NC(=O)[C@H](CCCCN)NC1=O)C(=O)N[C@@H](CCCCN)C(=O)N[C@@H](C)C(=O)N[C@@H](CC(=O)O)C(=O)N[C@@H](CC(N)=O)C(=O)N[C@@H](CC(=O)O)C(=O)N3)NC(=O)[C@H](CCCCN)NC(=O)[C@H](CCCCN)NC(=O)CNC2=O (stereo partly drawn) [Alexa-IpTxa] (X1-[X2]DCLPHLKRCKADNDCCGKKCKRRGTNAEKRCR-OH; disulfide 3-17, 10-21, 16-32; C-terminus assumed)
time at which clear intracellular localization of fluorescence is seen ([1]; 1 μM perfusion, confocal, more intense at later time): ≤ 10 min
speed of penetration into living isolated cardiomyocytes [1]: slower (minutes)

CC1CC(C)(C)Nc2c1cc1c(c2S(=O)(=O)O)Oc2c(S(=O)(=O)O)c3c(cc2=C1c1c(Cl)c(SCC(=O)NCCCCCN2C(=O)C=CC2=O)c(Cl)c(Cl)c1C(=O)O)C(C)CC(C)(C)N=3 (stereo not drawn) [Alexa-maleimide, Alexa-Fluor-546-C5-maleimide, reference compound]
membrane permeability (negative control) ([1]; as stated for the fluorophore reagent): membrane-impermeable

CC(C)C[C@@H]1NC(=O)[C@H](Cc2c[nH]cn2)NC(=O)[C@@H]2CCCN2C(=O)[C@H](CC(C)C)NC(=O)[C@@H](NC(=O)[C@H](CC(=O)O)NC(=O)CN)CSSC[C@@H]2NC(=O)[C@@H]3CSSC[C@@H](C(=O)N[C@@H](CCCNC(=N)N)C(=O)O)NC(=O)[C@H](CCCNC(=N)N)NC(=O)[C@H](CCCCN)NC(=O)[C@H](CCC(=O)O)NC(=O)[C@H](C)NC(=O)[C@H](CC(N)=O)NC(=O)[C@H]([C@@H](C)O)NC(=O)CNC(=O)[C@H](CCCNC(=N)N)NC(=O)[C@H](CCCNC(=N)N)NC(=O)[C@H](CCCCN)NC(=O)[C@H](CSSC[C@H](NC(=O)[C@H](CCCNC(=N)N)NC(=O)[C@H](CCCCN)NC1=O)C(=O)N[C@@H](CCCCN)C(=O)N[C@@H](C)C(=O)N[C@@H](CC(=O)O)C(=O)N[C@@H](CC(N)=O)C(=O)N[C@@H](CC(=O)O)C(=O)N3)NC(=O)[C@H](CCCCN)NC(=O)[C@H](CCCCN)NC(=O)CNC2=O [IpTxa, imperatoxin A] (H-GDCLPHLKRCKADNDCCGKKCKRRGTNAEKRCR-OH; disulfide 3-17, 10-21, 16-32 (inferred); N-terminus and C-terminus assumed)
speed of penetration into living isolated cardiomyocytes [1]: rapid (few seconds)
effect on diastolic [Ca2+]i ([2]; 100 nM to 3 µM perfused, in some cells): elevated diastolic [Ca^2+]i
effect on [Ca2+]i transients at high concentration ([2]; 30 µM perfused in normal Tyrode, cells paced at 0.5 Hz, Fluo indicator, line-scan confocal, representative of three of four experiments): complete cessation of [Ca^2+]i transients
effect on [Ca2+]i transient amplitude at lower concentrations ([2]; 100-300 nM perfused, followed by gradual diminution to a new, lower steady-state, representative of 12 of 36 experiments): significant increase in the amplitude of the [Ca^2+]i transient
lag time of effects on intracellular Ca2+ signaling after perfusion ([2]; perfusion on intact cells): 2 to 3 s

Cn1c(=O)c2c(ncn2C)n(C)c1=O [caffeine]
effect on Ca2+ transient amplitude [3]: brief increase in the amplitude of the Ca^2+ transient
